The results in this text go back to patent US10508104B2, “6-hydroxy-5-(phenyl/heteroarylsulfonyl)pyrimidin-4(1H)-one as APJ agonists” (Bristol-Myers Squibb Company, priority 2016, dated 2019).

Sequence of human APJ receptor (P35414 whole entry): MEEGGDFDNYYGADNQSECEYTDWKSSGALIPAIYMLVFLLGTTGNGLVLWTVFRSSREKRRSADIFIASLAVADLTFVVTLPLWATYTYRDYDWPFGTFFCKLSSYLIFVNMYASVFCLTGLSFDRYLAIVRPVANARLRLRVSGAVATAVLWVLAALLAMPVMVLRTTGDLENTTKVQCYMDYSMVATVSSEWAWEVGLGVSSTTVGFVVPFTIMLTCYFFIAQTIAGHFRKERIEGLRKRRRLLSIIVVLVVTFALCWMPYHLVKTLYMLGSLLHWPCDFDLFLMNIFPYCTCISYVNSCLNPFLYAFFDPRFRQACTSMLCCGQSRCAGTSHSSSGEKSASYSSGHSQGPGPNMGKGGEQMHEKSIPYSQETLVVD

One test has as its target human APJ receptor (Homo sapiens (Human), UniProt P35414). Kind of test: Intracellular cAMP accumulation assay (APJ hcAMP, HTRF). Type of test: cell-based. Particulars: HEK293 cells stably expressing human APJ receptor; inhibition of forskolin-mediated cAMP production; read-out: Human APJ cAMP EC50 Potency range. An outline of the steps:
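HEK293 cells stably expressing human APJ, 5,000 per well, incubated 30 min at rt with compound, […] and 2 μM forskolin. cAMP measured by HTRF against a cAMP standard curve as inhibition of forskolin-driven production. EC50 from variable-slope sigmoidal fit.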
On the technique in general: cAMP levels reflect the balance of adenylyl cyclase and phosphodiesterase activity.
As a reminder, the EC50 is the midpoint of the concentration-response curve. Regarding `COC[C@@H](c1cc(F)cc(F)c1)n1c(COC(C)C)nc(=O)c(S(=O)(=O)c2ccc(-c3cccnc3C)cc2)c1O` [Example 379, 1-[(1R)-1-(3,5-difluorophenyl)-2-methoxyethyl]-6-hydroxy-5-[4-(2-methylpyridin-3-yl)benzenesulfonyl]-2-[(propan-2-yloxy)methyl]-1,4-dihydropyrimidin-4-one], the EC50 lay in the range of 0.01 to 10 nM.

With `CCCCc1nc(=O)c(S(=O)(=O)c2ccc(-c3ccncc3C)cc2)c(O)n1[C@@H](CC)c1ccc(C#N)c(F)c1` [Example 516, 4-[(1S)-1-{2-butyl-6-hydroxy-5-[4-(3-methylpyridin-4-yl)benzenesulfonyl]-4-oxo-1,4-dihydropyrimidin-1-yl}propyl]-2-fluorobenzonitrile], the EC50 was 0.01 to 10 nM.

Turning to `CCCCc1nc(=O)c(S(=O)(=O)c2ccc(-c3ccnc(F)c3C)cc2)c(O)n1[C@@H](CC)c1cccc(C#N)n1` [Example 549, 6-[(1S)-1-{2-butyl-5-[4-(2-fluoro-3-methylpyridin-4-yI)benzenesulfonyl]-6-hydroxy-4-oxo-1,4-dihydropyrimidin-1-yl}propyl]pyridine-2-carbonitrile], the concentration for a half-maximal effect (EC50) lay within 0.01 to 10 nM.

As to `COC[C@@H](c1cccc(C#N)c1)n1c(COC(C)C)nc(=O)c(S(=O)(=O)c2ccc(-c3cn(C)nc3C)cc2)c1O` [Example 393, 3-[(1R)-1-{5-[4-(1,3-dimethyl-1H-pyrazol-4-yl)benzenesulfonyl]-6-hydroxy-4-oxo-2-[(propan-2-yloxy)methyl]-1,4-dihydropyrimidin-1-yl}-2-methoxyethyl]benzonitrile], the EC50 lay in the range of 0.01 to 10 nM.

Regarding `CCCCc1nc(=O)c(S(=O)(=O)c2ccc(-c3cccnc3C)cc2)c(O)n1[C@H](c1cccc(C#N)c1)C(C)C` [Example 448, 3-[(1S)-1-{2-butyl-6-hydroxy-5-[4-(2-methylpyridin-3-yl)benzenesulfonyl]-4-oxo-1,4-dihydropyrimidin-1-yl}-2-methylpropyl]benzonitrile], the EC50 was in the range of 0.01 to 10 nM.

In the case of `CCCCc1nc(=O)c(S(=O)(=O)c2ccc(-c3ccc(F)cc3C(N)=O)cn2)c(O)n1[C@@H](CC)c1cccc(C#N)c1` [Example 464, 2-[6-({2-butyl-1-[(1S)-1-(3-cyanophenyl)propyl]-6-hydroxy-4-oxo-1,4-dihydropyrimidin-5-yl)sulfonyl)pyridin-3-yl]-5-fluorobenzamide], the EC50 lay in the range of 0.01 to 10 nM.

With `CCOCc1nc(=O)c(S(=O)(=O)c2ccc(-c3ccccc3C(N)=O)c(F)c2)c(O)n1C(COC)c1cccc(F)c1` (stereo not shown) [Example 401, 4′-{[2-(ethoxymethyl)-1-[1-(3-fluorophenyl)-2-methoxyethyl]-6-hydroxy-4-oxo-1,4-dihydropyrimidin-5-yl]sulfonyl}-2′-fluoro-[1,1′-biphenyl]-2-carboxamide], the 50% effective concentration (EC50) lay within 0.01 to 10 nM.

On to `CCCCc1nc(=O)c(S(=O)(=O)[C@H]2CC[C@@H](O)CC2)c(O)n1-c1c(OC)cccc1OC` [Example 555, 2-butyl-1-(2,6-dimethoxyphenyl)-6-hydroxy-5-{[(1s,4s)-4-hydroxycyclohexyl]sulfonyl}-1,4-dihydropyrimidin-4-one], for which the EC50 fell in the range of 0.01 to 10 nM.

In the case of `CCCCc1nc(=O)c(S(=O)(=O)[C@H]2CC[C@@H](OCc3ccccc3)CC2)c(O)n1-c1c(OC)cccc1OC` [Example 367, 2-butyl-1-(2,6-dimethoxyphenyl)-6-hydroxy-5-{[(1s,4s)-4-(benzyloxy)cyclohexyl]sulfonyl}-1,4-dihydropyrimidin-4-one], the EC50 lay in the range of 0.01 to 10 nM.

In the case of `CCCCc1nc(=O)c(S(=O)(=O)c2ccc(-c3ccnc(F)c3C)cc2)c(O)n1[C@@H](CC)c1ccccc1F` [Example 432, 2-butyl-5-[4-(2-fluoro-3-methylpyridin-4-yl)benzenesulfonyl]-1-[(1S)-1-(2-fluorophenyl)propyl]-6-hydroxy-1,4-dihydropyrimidin-4-one], the EC50 lay within 0.01 to 10 nM.

Still in this test, the particulars now being: human APJ, cAMP accumulation; read-out: Human APJ cAMP EC50 Potency range.
Consider `COc1cccc(OC)c1-n1c(-c2cncc(C)c2)nc(=O)c(S(=O)(=O)c2ccc(C3CC3)cc2)c1O` [Example 277, 5-(4-cyclopropylbenzene-sulfonyl)-1-(2,6-dimethoxyphenyl)-6-hydroxy-2-(5-methylpyridin-3-yl)-1,4-dihydropyrimidin-4-one], for which the EC50 was 0.01 to 10 nM.

Consider `CCOCc1nc(=O)c(S(=O)(=O)c2ccc(Br)cc2)c(O)n1[C@@H](CC)c1ccccc1` [Example 285, 5-(4-bromobenzenesulfonyl)-2-(ethoxymethyl)-6-hydroxy-1-[(1S)-1-phenylpropyl]-1,4-dihydropyrimidin-4-one], for which the EC50 was 100 to 300 nM.

For the molecule `CCCCc1nc(O)c(S(=O)(=O)c2ccc(Br)cc2)c(=O)n1[C@@H](C)c1ccccc1OC` [Example 238, 5-(4-bromobenzenesulfonyl)-2-butyl-6-hydroxy-3-[(1S)-1-(2-methoxyphenyl)ethyl]-3,4-dihydropyrimidin-4-one], the 50% effective concentration (EC50) fell in the range of 100 to 300 nM.

With `CCCCc1nc(=O)c(S(=O)(=O)c2ccc(-c3cncc(F)c3)cc2)c(O)n1[C@@H](CC)c1ccccc1` [Example 290, 2-butyl-5-[4-(5-fluoropyridin-3-yl)benzenesulfonyl]-6-hydroxy-1-[(1S)-1-phenylpropyl]-1,4-dihydropyrimidin-4-one], the concentration giving a half-maximal response (EC50) is 0.01 to 10 nM.

`CCOCc1nc(=O)c(S(=O)(=O)c2ccc(-c3ccncc3C)c(F)c2)c(O)n1[C@@H](COC)c1ccccc1` [Example 340, 2-(ethoxymethyl)-5-[3-fluoro-4-(3-methylpyridin-4-yl)benzenesulfonyl]-6-hydroxy-1-[(1R)-2-methoxy-1-phenylethyl]-1,4-dihydropyrimidin-4-one]: the 50% effective concentration (EC50) fell in the range of 0.01 to 10 nM.

Turning to `CCOCc1nc(=O)c(S(=O)(=O)c2ccc(-c3ccc(F)nc3C)cc2)c(O)n1[C@@H](CC)c1ccccc1` [Example 308, 2-(ethoxymethyl)-5-[4-(6-fluoro-2-methylpyridin-3-yl)benzenesulfonyl]-6-hydroxy-1-[(1S)-1-phenylpropyl]-1,4-dihydropyrimidin-4-one], the EC50 fell in the range of 0.01 to 10 nM.

Regarding `COc1cccc(OC)c1-n1c(-c2ccc(F)cc2)nc(=O)c(S(=O)(=O)c2ccc(-c3ccncc3C)cc2)c1O` [Example 273], the EC50 lay within 0.01 to 10 nM.

In the case of `CCOCc1nc(=O)c(S(=O)(=O)c2ccc(-c3ccc(F)nc3)cc2)c(O)n1[C@@H](CC)c1ccccc1` [Example 305, 2-(ethoxymethyl)-5-[4-(6-fluoropyridin-3-yl)benzenesulfonyl]-6-hydroxy-1-[(1S)-1-phenylpropyl]-1,4-dihydropyrimidin-4-one], the EC50 was in the range of 0.01 to 10 nM.

Staying with this test, now noted: human APJ, intracellular cAMP accumulation; read-out: Human APJ cAMP EC50 Potency range.
As to `COC[C@@H](c1ccccc1)n1c(CCC(C)C)nc(=O)c(S(=O)(=O)c2ccc(-c3cncc(F)c3)cc2)c1O` [Example 195, 5-[4-(5-fluoropyridin-3-yl)benzenesulfonyl]-6-hydroxy-1-[(1R)-2-methoxy-1-phenylethyl]-2-(3-methylbutyl)-1,4-dihydropyrimidin-4-one], the EC50 was in the range of 0.01 to 10 nM.

As to `CCCCc1nc(=O)c(S(=O)(=O)c2ccc(-c3ccc(F)nc3)c(F)c2)c(O)n1-c1c(OC)cccc1OC` [Example 70, 2-butyl-1-(2,6-dimethoxyphenyl)-5-[3-fluoro-4-(6-fluoropyridin-3-yl)benzenesulfonyl]-6-hydroxy-1,4-dihydropyrimidin-4-one], the EC50 lay within 0.01 to 10 nM.

As for `CCCCc1nc(=O)c(S(=O)(=O)c2ccc(-c3ccnc(F)c3C)c(F)c2)c(O)n1-c1c(OC)cccc1OC` [Example 69, 2-butyl-1-(2,6-dimethoxyphenyl)-5-[3-fluoro-4-(2-fluoro-3-methylpyridin-4-yl)benzenesulfonyl]-6-hydroxy-1,4-dihydropyrimidin-4-one], the EC50 fell in the range of 0.01 to 10 nM.

Take `CCCCc1nc(=O)c(S(=O)(=O)c2ccc(-c3ccncc3C)cc2)c(O)n1[C@H](C)c1cccc(C#N)c1` [Example 158, 3-[(1R)-1-{2-butyl-6-hydroxy-5-[4-(3-methylpyridin-4-yl)benzenesulfonyl]-4-oxo-1,4-dihydropyrimidin-1-yl}ethyl]benzonitrile]: the 50% effective concentration (EC50) fell in the range of 0.01 to 10 nM.

With `CCCCc1nc(=O)c(S(=O)(=O)c2ccc(-c3ccnc(F)c3C)cc2)c(O)n1[C@@H](CC)c1cccc(OC)c1` [Example 169, 2-butyl-5-[4-(2-fluoro-3-methylpyridin-4-yl)benzenesulfonyl]-6-hydroxy-1-[(1S)-1-(3-methoxyphenyl)propyl]-1,4-dihydropyrimidin-4-one], the EC50 was in the range of 0.01 to 10 nM.

On to `CCCCc1nc(=O)c(S(=O)(=O)c2ccc(F)cc2)c(O)n1-c1c(OC)cccc1OC` [Example 4, 2-butyl-1-(2,6-dimethoxyphenyl)-5-(4-fluorobenzenesulfonyl)-6-hydroxy-1,4-dihydropyrimidin-4-one], for which the concentration for a half-maximal effect (EC50) lay within 0.01 to 10 nM.

In the case of `CCCCc1nc(=O)c(S(=O)(=O)c2ccc(-c3cncc(F)c3)cc2)c(O)n1[C@H](C)c1ccccc1` [Example 131, 2-butyl-5-[4-(5-fluoropyridin-3-yl)benzenesulfonyl]-6-hydroxy-1-[(1R)-1-phenylethyl]-1,4-dihydropyrimidin-4-one], the EC50 is 10 to 100 nM.

For `CCCCc1nc(=O)c(S(=O)(=O)c2ccc(-c3ccc(F)cc3)c(F)c2)c(O)n1-c1c(OC)cccc1OC` [Example 68, 2-butyl-1-(2,6-dimethoxyphenyl)-5-[3-fluoro-4-(4-fluorophenyl)benzene-sulfonyl]-6-hydroxy-1,4-dihydropyrimidin-4-one], the half-maximal effective concentration (EC50) is 0.01 to 10 nM.

`CCCCc1nc(=O)c(S(=O)(=O)c2ccc(-n3cc(F)ccc3=O)cc2)c(O)n1-c1c(OC)cccc1OC` [Example 75, 2-butyl-1-(2,6-dimethoxyphenyl)-5-[4-(5-fluoro-2-oxo-1,2-dihydropyridin-1-yl)benzenesulfonyl]-6-hydroxy-1,4-dihydropyrimidin-4-one]: the half-maximal effective concentration (EC50) lay within 0.01 to 10 nM.

Regarding `CCCCc1nc(=O)c(S(=O)(=O)c2ccc(-c3cc(Cl)cc(Cl)c3)cc2)c(O)n1-c1c(OC)cccc1OC` [Example 56, 2-butyl-5-[4-(3,5-dichlorophenyl)benzenesulfonyl]-1-(2,6-dimethoxyphenyl)-6-hydroxy-1,4-dihydropyrimidin-4-one], the EC50 lay within 0.01 to 10 nM.
